In ChEMBL document CHEMBL1275424, “In vitro activity of anidulafungin against Candida albicans biofilms” (2008):
Converted amounts (≈) assume the structure as drawn. Numbered stars: 1 amine (or outer) side, 2 acyl side, 3 side chain; on linkers, the order of the positions; unused ones are H or OH. Bridge positions count the residues as written; N and C are the ends. Square brackets hold non-standard residues; d marks the D form. Peptide text beside a SMILES is read from it. * marks the point of attachment. pTerphenylCO(4''-OnC5H11) = CCCCCOc1ccc(-c2ccc(-c3ccc(C(=O)*)cc3)cc2)cc1; Orn(4R-OH,5R-OH) = O=C([C@H](C[C@@H](O)[C@@H](O)N[*:3])N[*:1])[*:2]; hTyr(3S-OH,4S-OH) = N[C@H](C(=O)O)[C@H](O)[C@@H](O)c1ccc(O)cc1; Pro(3S-OH,4S-Me) = C[C@H]1CN[C@H](C(=O)O)[C@H]1O; Hyp = O=C(O)[C@@H]1C[C@@H](O)CN1

Legend:
Assay type in all cases: functional
Candida albicans [1] = experiment: Antimicrobial activity against Candida albicans grown as planktonic cell by broth microdilution method
Candida albicans [2] = experiment: Antimicrobial activity against Candida albicans grown as planktonic cell after 24 hrs by broth microdilution method
Candida albicans [3] = experiment: Antimicrobial activity against Candida albicans grown as sessile cell after 48 hrs by broth microdilution method
Candida albicans [4] = experiment: Antimicrobial activity against Candida albicans grown as planktonic cell after 48 hrs by broth microdilution method
Candida albicans [5] = experiment: Antimicrobial activity against Candida albicans GDH2346 grown as sessile cell after 48 hrs by broth microdilution method; settings: GDH2346, 48 h

Compound | MIC90 (Candida albicans [1]) | MIC (Candida albicans [2]) | MIC (Candida albicans [1]) | MIC50 (Candida albicans [1]) | MIC (Candida albicans [3]) | MIC (Candida albicans [4]) | MIC (Candida albicans [5])
CC[C@H](C)C[C@H](C)CCCCCCCCC(=O)N[C@H]1C[C@@H](O)[C@@H](NCCN)NC(=O)[C@@H]2[C@@H](O)CCN2C(=O)[C@H]([C@H](O)CCN)NC(=O)[C@H]([C@H](O)[C@@H](O)c2ccc(O)cc2)NC(=O)[C@@H]2C[C@@H](O)CN2C(=O)[C@H]([C@@H](C)O)NC1=O [CASPOFUNGIN] | 0.5 µg/mL (≈ 0.457 µM) |  |  |  |  |  | 
C[C@@H](c1ncncc1F)[C@](O)(Cn1cncn1)c1ccc(F)cc1F [VORICONAZOLE] | > 0.06 µg/mL |  |  |  |  |  | 
C[C@@H]1[C@H](O)[C@@H](C)/C=C/C=C/C=C/C=C/C=C/C=C/C=C/[C@H](O[C@@H]2O[C@H](C)[C@@H](O)[C@H](N)[C@@H]2O)C[C@@H]2O[C@](O)(C[C@@H](O)C[C@@H](O)[C@H](O)CC[C@@H](O)C[C@@H](O)CC(=O)O[C@H]1C)C[C@H](O)[C@H]2C(=O)O [AMPHOTERICIN B] | 0.25 µg/mL (≈ 0.271 µM) |  |  |  |  |  | 
CCCCCOc1ccc(-c2ccc(-c3ccc(C(=O)N[C@H]4C[C@@H](O)[C@@H](O)NC(=O)[C@@H]5[C@@H](O)[C@@H](C)CN5C(=O)[C@H]([C@@H](C)O)NC(=O)[C@H]([C@H](O)[C@@H](O)c5ccc(O)cc5)NC(=O)[C@@H]5C[C@@H](O)CN5C(=O)[C@H]([C@@H](C)O)NC4=O)cc3)cc2)cc1 [ANIDULAFUNGIN] ({pTerphenylCO(4''-OnC5H11)}-[Orn(4R-OH,5R-OH)]T[Hyp][hTyr(3S-OH,4S-OH)]T[Pro(3S-OH,4S-Me)]; lactam 1-C) | 0.125 µg/mL (≈ 0.11 µM) | 0.125 µg/mL (≈ 0.11 µM) | ≤ 0.03 µg/mL | ≤ 0.03 µg/mL | > 0.03 µg/mL | ≤ 0.5 µg/mL | ≤ 0.03 µg/mL
